Tests used:
[1] = tested on: oil seed rape hypocotyl explants inoculated with Agrobacterium tumefaciens EHA101; experiment: Selection of transgenic oil seed rape on galactose containing media; format: cell-based, Brassica napus; conditions: galactose 2.5 g/l, sucrose 10 g/l
Description: Hypocotyl explants of oil seed rape were prepared using a protocol modified according to Radke et al. (1988. Theor. Appl. Genet. 78: 161-168). Hypocotyls of 5 d old seedlings were cut into 1 cm segments and inoculated with a suspension of Agrobacterium tumefaciens strain EHA101 (OD660=0.1-0.5, prepared according to standard procedures). After inoculation, the explants were dried carefully on filterpaper before co-cultivation.
(§1) After co-culture, the explants were transferred to selection medium consisting of modified MS-medium (Murashige and Skoog 1962. Physiol. Plant. 15: 473-497) supplemented with 500 mg/l carbenicillin and various concentrations of sucrose and galactose. After 7-8 weeks, shoots were harvested and transgenicity was evaluated by subjecting the harvested shoots to the assay for β-glucuronidase activity (Jefferson et al. 1987. Plant Mol. Biol. Rep. 5: 387-405), a marker enzyme encoded by a gene placed adjacent the selective gene on the T-DNA of the transformation vector (FIG. 3).

[2] = tested on: sugar beet cotyledonary explants; experiment: Toxicity of galactose to sugar beet cotyledonary explants; format: cell-based, Beta vulgaris; conditions: 20 g/l sucrose and various concentrations galactose; 4-5 weeks
Description: In order to be useful for selection, the selective component (otherwise called selective agent) should not be able to sustain significant growth and preferably have adverse/toxic effects to the non-transformed cells/tissues. To assess the applicability of galactose selection following transformation, a number of plant species representing a range of different botanical families were tested for sensitivity to galactose, using explants which may be suitable for transformation experiments. Cotyledonary explants useful for the transformation of sugar beet were prepared by excising the cotyledons from […] seedlings (Joersbo er al. 1998. Mol. Breeding 4: 111-117). The leaves were transferred to modified MS-medium (Murashiee and Skoog 1962. Physiol. Plant. 15: 473-497) containing 20 g/l sucrose and various concentrations galactose.

[3] = tested on: oil seed rape hypocotyl explants; experiment: Toxicity of galactose to oil seed rape hypocotyl explants (shoot regeneration); format: cell-based, Brassica napus
Description: (§2) In order to be useful for selection, the selective component (otherwise called selective agent) should not be able to sustain significant growth and preferably have adverse/toxic effects to the non-transformed cells/tissues. To assess the applicability of galactose selection following transformation, a number of plant species representing a range of different botanical families were tested for sensitivity to galactose, using explants which may be suitable for transformation experiments.
Hypocotyl explants useful for the transformation of oil seed rape were prepared using a protocol modified after Radke et al. (1988. Theor. Appl. Genet. 78: 161-168). Hypocotyls of 5 d old seedlings were cut into 1 cm segments and transferred to modified MS-medium (Murashige and Skoog 1962. Physiol. Plant. 15: 473-497) containing sucrose and galactose according to the experiment. After 3-4 weeks, shoots were harvested and the explants were transferred to fresh medium of the same composition. This was repeated for 3 more harvests and the total number of regenerated shoots formed on each medium was calculated (see table below).

[4] = tested on: potato explants transformed with pVIC-galT; experiment: Selection of transgenic potato shoots (galT vector) on galactose containing media; format: cell-based, Solanum tuberosum; conditions: for No. of transgenic shoots: GUS assay
Description: Young leaves useful for the transformation of potato were prepared from leaves of 28 d old in vitro shoot cultures. The leaves were cut off avoiding the meristem at the leaf corner and were cut twice across the midvein. The explants were inoculated for 30 min. with a suspension of Agrobacterium tumefaciens strain EHA101 (OD660=0.5) harbouring the transformation vector described above. After inoculation, the explants were dried carefully on filterpaper and left for co-cultivation for 3 d in dim light.
as §1, with “of” for “of modified”, “3 and 6” for “7-8”, “4).” for “3).”

[5] = tested on: Petunia; experiment: Sensitivity of Petunia to galactose; format: cell-based
Description: as §2

[6] = tested on: tissues of barley; conditions: Roberts et al.; cited from earlier work
[7] = tested on: potato leaf explants; experiment: Toxicity of galactose to potato leaf explants (shoot regeneration); format: cell-based, Solanum tuberosum
Description: In order to be useful for selection, the selective component (otherwise called selective agent) should not be able to sustain significant growth and preferably have adverse/toxic effects to the non-transformed cells/tissues. To assess the applicability of galactose selection following transformation, a number of plant species representing a range of different botanical families were tested for sensitivity to galactose, using explants which may be suitable for transformation experiments. Young leaves useful for the transformation of potato were prepared from leaves of 28 d old in vitro shoot cultures. The leaves were cut off avoiding the meristem at the leaf corner and were cut twice across the […]. The explants were then put on modified MS-medium (Murashige and Skoog 1962. Physiol. Plant. 15: 473-497) containing various concentrations of sucrose and galactose. After 3 weeks, shoots were harvested and the explants were transferred to fresh medium of the same composition. This was repeated for 2 more harvests and the total number of explants with regenerated shoots formed on each medium was calculated (see table below).

[8] = tested on: tissues of maize; conditions: Roberts et al.; cited from earlier work
[9] = tested on: immature wheat embryos; experiment: Toxicity of galactose to immature wheat embryos (germination and shoot growth); format: cell-based, Triticum aestivum; conditions: 20 g/l sucrose, relative to control medium (no galactose) = 100
Description: In order to be useful for selection, the selective component (otherwise called selective agent) should not be able to sustain significant growth and preferably have adverse/toxic effects to the non-transformed cells/tissues. To assess the applicability of galactose selection following transformation, a number of plant species representing a range of different botanical families were tested for sensitivity to galactose, using explants which may be suitable for transformation experiments. As an example of a monocotyledonous species, wheat was studied. Immature wheat embryos (2-3 weeks old, a total of 161) were carefully removed from the seed and were cultivated on Gamborg B5 medium (Gamborg et al. 1968. Exp. Cell Res. 50: 151-158) supplemented with 9.0 g/l Bacto agar. 20 g/l sucrose and galactose according to the experiment. The embryos were cultivated in the dark for about 10 days where germinated embryos were transferred to fresh medium of the same composition and cultivated in a 16 h/8 h day/night regime for 4-5 weeks. The effect of galactose was evaluated by the number of germinated embryos and by measuring the length of the leaf on these embryos, relative to the control medium (no galactose).

[10] = tested on: sunflower explants; experiment: Toxicity of galactose to sunflower apical explants (fresh weight); format: cell-based, Helianthus annuus; conditions: 20 g/l sucrose, 4-5 weeks, above controls on medium devoid of carbohydrate
Description: as §2
The preparation of apical explants useful for the transformation of sunflower were modified according to Knittel et al. (1994. Plant Cell Rep. 14: 81-86). The seed coats of 2 d old seedlings were gently removed and the cotyledons, the emerging root and the top of the apex were removed. The remaining part of the apex was cut off and divided into two halves and cultivated according to Knittel et al., with 20 g/l sucrose in the medium and galactose according to the experiment. After 4-5 weeks of culture at a 16 h/8 h day/night regime, growth was monitored by determining the fresh weight of the explants (above controls grown on a medium devoid of any carbohydrate source).

[11] = tested on: pea hypocotyl explants; experiment: Toxicity of galactose to pea hypocotyl explants; format: cell-based, Pisum sativum; conditions: after 5 weeks; versus control medium with 20 g/l sucrose (no galactose)
Description: as §2, with “experiments. Hypocotyl explants useful for the transformation of pea were prepared by excising the hypocotyl from 7 d old seedlings and transferred to a medium, according to Nielsen er al. (1991. Physiol. Plant 82: 99-102), containing various concentrations of sucrose and galactose. After 5 weeks, the growth of the explants were evaluated.” for “experiments.”

[12] = 2.5 g/l galactose, sucrose 0 g/l
[13] = 2.5 g/l galactose, sucrose 5.0 g/l
[14] = 2.5 g/l galactose, sucrose 10 g/l
[15] = 2.5 g/l galactose, sucrose 20 g/l
[16] = 5.0 g/l galactose, sucrose 0 g/l
[17] = 5.0 g/l galactose, sucrose 5.0 g/l
[18] = 5.0 g/l galactose, sucrose 10 g/l
[19] = 5.0 g/l galactose, sucrose 20 g/l
[20] = galactose 1.25 g/l, sucrose 10 g/l
[21] = galactose 1.25 g/l, sucrose 15 g/l
[22] = galactose 1.25 g/l, sucrose 20 g/l
[23] = galactose 2.5 g/l, sucrose 10 g/l
[24] = galactose 2.5 g/l, sucrose 15 g/l
[25] = galactose 2.5 g/l, sucrose 20 g/l

Q: Which “Transformation frequency (%)” value [1] does the source give for OC[C@H]1OC(O)[C@H](O)[C@@H](O)[C@H]1O (mixture of isomers) [galactose] here?
A: 1.0%

Q: And the “No. of transgenic shoots” value ([1]; shoots more than 50% β-glucuronidase-positive, 7-8 weeks)?
A: 4

Q: And the “fresh weight of the explants” value [2]?
A: significant reduction

Q: And the number of shoots [2]?
A: significant reduction

Q: What about the “total number of regenerated shoots” value [3, 12] of the same compound?
A: 0

Q: And the “total number of regenerated shoots” value [3, 13]?
A: 1

Q: What about the “total number of regenerated shoots” value [3, 14] of the same compound?
A: 7

Q: And the “total number of regenerated shoots” value [3, 15]?
A: 26

Q: And the “total number of regenerated shoots” value [3, 16]?
A: 0

Q: What about the “total number of regenerated shoots” value [3, 17] of the same compound?
A: 0

Q: What about the “total number of regenerated shoots” value [3, 18] of the same compound?
A: 3

Q: What about the “total number of regenerated shoots” value [3, 19] of the same compound?
A: 22

Q: And the “Transformation frequency (%)” value [4, 20]?
A: 6.0%

Q: What about the “No. of transgenic shoots” value [4, 20] of the same compound?
A: 3

Q: What about the “Transformation frequency (%)” value [4, 21] of the same compound?
A: 14.0%

Q: What about the “No. of transgenic shoots” value [4, 21] of the same compound?
A: 7

Q: What about the “Transformation frequency (%)” value [4, 22] of the same compound?
A: 6.0%

Q: What about the “No. of transgenic shoots” value [4, 22] of the same compound?
A: 3

Q: What about the “Transformation frequency (%)” value [4, 23] of the same compound?
A: 2.0%

Q: And the “No. of transgenic shoots” value [4, 23]?
A: 1

Q: What about the “Transformation frequency (%)” value [4, 24] of the same compound?
A: 0%

Q: And the “No. of transgenic shoots” value [4, 24]?
A: 0

Q: And the “Transformation frequency (%)” value [4, 25]?
A: 8.0%

Q: And the “No. of transgenic shoots” value [4, 25]?
A: 4

Q: And the “sensitivity to galactose (level of toxicity)” value [5]?
A: fairly tolerant

Q: What about the “ability of galactose to sustain growth” value ([5]; stated for all tested plant species incl. Petunia) of the same compound?
A: unable to sustain growth

Q: What about the “toxicity to tissues of barley” value [6] of the same compound?
A: toxic

Q: What about the “total number of explants with regenerated shoots” value (from here on “total number of explants”) [7, 12] of the same compound?
A: 1

Q: And the “total number of explants” value [7, 13]?
A: 0

Q: What about the “total number of explants” value [7, 14] of the same compound?
A: 0

Q: And the “total number of explants” value [7, 15]?
A: 7

Q: What about the “total number of explants” value [7, 16] of the same compound?
A: 0

Q: What about the “total number of explants” value [7, 17] of the same compound?
A: 0

Q: And the “total number of explants” value [7, 18]?
A: 0

Q: And the “total number of explants” value [7, 19]?
A: 0

Q: And the “toxicity to tissues of maize” value [8]?
A: toxic

Q: What about the Average shoot length ([9]; galactose 2.5 g/l) of the same compound?
A: 89

Q: What about the Germination of embryos ([9]; galactose 2.5 g/l) of the same compound?
A: 43

Q: What about the Average shoot length ([9]; galactose 5.0 g/l) of the same compound?
A: 67

Q: And the Germination of embryos ([9]; galactose 5.0 g/l)?
A: 29

Q: What about the Average shoot length ([9]; galactose 7.5 g/l) of the same compound?
A: 0

Q: What about the Germination of embryos ([9]; galactose 7.5 g/l) of the same compound?
A: 0

Q: What about the Average shoot length ([9]; galactose 10 g/l) of the same compound?
A: 33

Q: What about the Germination of embryos ([9]; galactose 10 g/l) of the same compound?
A: 14

Q: And the Average shoot length ([9]; galactose 15 g/l)?
A: 0

Q: And the Germination of embryos ([9]; galactose 15 g/l)?
A: 0

Q: What about the Fresh weight ([10]; galactose 5.0 g/l) of the same compound?
A: 28 mg/explant

Q: And the Fresh weight ([10]; galactose 7.5 g/l)?
A: 0 mg/explant

Q: What about the Fresh weight ([10]; galactose 10 g/l) of the same compound?
A: 0 mg/explant

Q: And the Fresh weight ([10]; galactose 15 g/l)?
A: 0 mg/explant

Q: And the “growth of the explants” value [11]?
A: unable to sustain any growth
